Ki data for 7 compounds are collected here from US20070270436A1, “NOVEL AMINO- AND IMINO-ALKYLPIPERAZINES” (Recordati Ireland Limited, priority 2006, published 2007).

As usually defined, the Ki is the dissociation constant of the complex between target and ligand, obtained from inhibition or displacement.

For the assay, the target named is T1, human 5HT1A-serotonergic receptor (Homo sapiens, UniProt P08908).
T1 construct: expressed in transfected cells; host or cells: HeLa (human), stably transfected; membranes
T1 sequence (P08908 1-422): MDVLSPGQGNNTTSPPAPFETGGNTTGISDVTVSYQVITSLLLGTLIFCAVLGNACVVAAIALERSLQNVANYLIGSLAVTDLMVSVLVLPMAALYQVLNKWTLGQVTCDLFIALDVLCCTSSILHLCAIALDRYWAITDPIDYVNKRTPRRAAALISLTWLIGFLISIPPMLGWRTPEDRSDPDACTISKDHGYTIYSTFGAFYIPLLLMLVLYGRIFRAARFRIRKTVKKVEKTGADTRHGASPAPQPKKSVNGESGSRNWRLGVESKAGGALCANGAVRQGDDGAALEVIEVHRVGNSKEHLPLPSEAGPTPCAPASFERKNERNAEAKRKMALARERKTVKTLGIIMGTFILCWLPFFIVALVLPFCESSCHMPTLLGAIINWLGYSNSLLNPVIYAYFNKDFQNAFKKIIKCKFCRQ
In words: Radioligand binding to recombinant 5-HT1A receptor ([3H]8-OH-DPAT, HeLa cell membranes). The following applies: 1 nM [3H]8-OH-DPAT; Ki from IC50 by the Cheng equation; read-out: Ki (nM), binding affinity for 5HT1A receptor. As for the experimental part: Genomic clone G-21 encoding the human 5HT1A-serotonergic receptor was stably transfected in a human cell line (HeLa). HeLa cells were grown as monolayers in Dulbecco's modified Eagle medium (DMEM), containing 10% fetal bovine serum and gentamycin (100 μg/ml) at 37° C. in a humidified atmosphere of 5% CO2 and air. The cells were detached from the growth flask at 95% confluence by a cell scraper and were lysed in cold 5 mM Tris and 5 mM EDTA buffer (pH 7.4). The homogenates were centrifuged at 40000×g×20 minutes and the pellets were resuspended in a small volume of cold 5 mM Tris and 5 mM EDTA buffer (pH 7.4) and immediately frozen and stored at −70° C. until use. On the day of experiment, the cell membranes were resuspended in incubation buffer: 50 mM Tris (pH 7.4), 2.5 mM MgCl2, 10 μM pargyline (Fargin et al., Nature 335, 358-360, 1988). The membranes were incubated in a final volume of 0.32 ml for 30 minutes at 30° C. with 1 nM [^3H]8-OH-DPAT, in the absence or presence of the test compounds. Non-specific binding was determined in the presence of 10 μM 5-HT. Incubation was stopped by addition of cold Tris buffer and rapid filtration through UniFilter GF/C plate.
The affinity of the tested compounds was evaluated as inhibition of specific binding of the radioligand to 5-HT1A receptor (IC50) by using the non-linear curve-fitting program Allfit (De Lean et al., Am. J. Physiol. 235, E97-E102 (1978)). The IC50 value was converted to an affinity constant (Ki) by the equation of Cheng et al., Biochem. Pharmacol. 22, 3099-3108 (1973).
On to `COc1ccccc1N1CCN(CC[C@@H](c2ccccc2F)[C@H](N)C2CCCCC2)CC1` (single isomer, unassigned) [Example 5aA, (1R,2S) or (1S,2R)-1-Cyclohexyl-2-(2-fluorophenyl)-4-[4-(2-methoxyphenyl)piperazin-1-yl]butylamine], for which the Ki was 0.6 nM.
For `CNC(C1CCCCC1)C(CCN1CCN(c2ccccc2OC)CC1)c1ccccc1F` (stereo not shown) [Example 10b] the value was 1.41 nM; for `COc1ccccc1N1CCN(CC[C@@H](c2ccccc2F)[C@H](NCc2ccco2)C2CCCCC2)CC1` (racemic) [Example 14, {(RS,SR)-1-Cyclohexyl-2-(2-fluorophenyl)-4-[4-(2-methoxyphenyl)-piperazin-1-yl]butyl}furan-2-ylmethylamine], 0.42 nM.
In the case of `CNC(C1CCCCC1)C(CCN1CCN(c2cccc3c2OCCO3)CC1)c1ccccc1F` (stereo not shown) [Example 39, 1-Cyclohexyl-4-[4-(2,3-dihydrobenzo[1,4]dioxin-5-yl)piperazin-1-yl]-2-(2-fluorophenyl)butylmethylamine], the inhibition constant Ki is 0.3 nM.
Consider `COc1ccccc1N1CCN(CCC(C(=NOC(C)=O)C2CCCCC2)c2ccccc2F)CC1` (stereo not shown) [Example 3, 1-Cyclohexyl-2-(2-fluorophenyl)-4-[4-(2-methoxyphenyl)-piperazin-1-yl]butan-1-one O-acetyl oxime], for which the Ki stood at 0.87 nM.
For `O=CNC(C1CCCCC1)C(CCN1CCN(c2cccc3[nH]ccc23)CC1)c1ccccc1F` (stereo not shown) [Example 52, N-{1-Cyclohexyl-2-(2-fluorophenyl)-4-[4-(1H-indol-4-yl)piperazin-1-yl]butyl}formamide] the value was 2.3 nM.
As for `O=CNC(C1CCCCC1)C(CCN1CCN(c2cccc3[nH]cnc23)CC1)c1ccccc1F` (stereo not shown) [Example 47, N-[4-[4-(1H-Benzimidazol-4-yl)piperazin-1-yl]-1-cyclohexyl-2-(2-fluoro-phenyl)butyl]formamide], the inhibition constant Ki was 0.8 nM.
